The text below walks through data of patent US8778966B2, “Quinolinone derivatives as PARP and tank inhibitors” (Janssen Pharmaceutica, NV, priority 2007, dated 2014).

The test system of one assay is HCT116 cells. As to the kind of experiment: Antiproliferative activity, Alamar Blue assay, HCT116 cells. In kind it is cell-based, human. The note with it: Homo sapiens, HCT-116, HCT116 cells; read-out: HCT116 antiproliferative activity pIC50 (converted). In outline:
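Readout is resazurin fluorescence (ex 540, em 590 nm) after a 4 h dye incubation at 37 °C, following 4-day compound treatment of HCT116 cells plated 24 h earlier. Results expressed as % viable cells versus untreated; pIC50 derived from probit-fitted IC50.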
(Alamar Blue is a resazurin reagent that responds to reducing activity.)

In another assay the test system is PC-3 cells. As to the kind of experiment: Antiproliferative activity, Alamar Blue assay, PC-3 cells. In kind it is cell-based, human. As to conditions: Homo sapiens, PC-3, PC3 cells; read-out: PC3 antiproliferative activity pIC50 (converted). Summed up: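 Resazurin-based fluorescence (540 nm ex/590 nm em) measured after 4-day compound treatment plus 24 hrs dye incubation at 37° C. Cells plated at 4.5×10^3 cells/ml, adhered 24 hr first. pIC50 from probit-derived IC50 on % viable cells versus untreated, triplicate wells.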

Another assay concerns tubulin. In words: Tubulin polymerization assay. The class given is biochemical. Further details: key: a compound showing 0 to 50% inhibition at 20 μM is reported as score 1; Score 2 compounds are defined as compound showing more than 50% inhibition at 20 μM and less than 50% inhibition at 5 μM; a compound showing more than 50% inhibition at 5 μM is reported as score 3. As to conditions: tested at 20 μM and 5 μM. Here is the method: The tubulin polymerization assay is an adaptation of an assay originally described by Bonne, D. et al. (J. Biol. Chem., 1985, 260:2819-25). The assay kit was purchased from Cytoskeleton, Inc. (catalogue number BK011) and the assay was performed as described by the supplier with the following modifications. The assay was run in a 384-well black Proxiplate (Perkin Elmer) and volumes were adapted accordingly. The reactions were carried out in a final volume of 10 μl. Compounds were added to 25 μl of the reaction mix in 96-well PP plates (Corning) on ice and 10 μl of this mixture was dispensed into duplicates of the 384-well Proxiplates pre-warmed to 37° C. in a Fluoroskan Ascent plate reader (Thermo Scientific). Fluorescence measurements were taken every minute for one hour. The maximum slope of each well was determined (linear regression through 4 consecutive points) and polymerization was calculated as a percentage of polymerization observed in the absence of compound. Compounds were first measured at a concentration of 20 μM and then at 5 μM for those showing more than 50% inhibition at 20 μM as compared to the polymerization observed in the absence of compound. Results are reported in Table F-2 as scores defined as: a compound showing 0 to 50% inhibition at 20 μM is reported as score 1; a compound showing more than 50% inhibition at 5 μM is reported as score 3.

Another assay deals with PC3 cells. As to the kind of experiment: EB1 Comet (microtubule disruption) assay. In kind it is cell-based, human. The note with it: Homo sapiens, PC-3, 1 h, 1 hour treatment, read-out: EB1 pLAC (converted). Summed up: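 Readout is loss of Eb1 plus-end foci, scored by immunofluorescence microscopy, in PC3 cells after 1 h compound treatment at 37 °C with 0.6% final DMSO. LAC is defined as the lowest concentration leaving at least 50% of cells without Eb1 foci.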

Molecules are shown by their SMILES.

Regarding `CCc1cc2ccc([C@@](C)(C#N)CN(C)Cc3ccc(C#N)cc3)cc2[nH]c1=O` (single isomer, unassigned) [Compound 253], the values for the IC50 in the assay with HCT116 cells and in the assay with PC-3 cells were 63.1 nM and 158 nM, respectively. In addition, the tubulin polymerisation score in the assay on tubulin is listed as 2. Also, in the assay on PC3 cells, the minimal effective concentration is 0.1 µM.

Consider `CCc1cc2ccc([C@](C)(C#N)[C@H]3CCOc4ccccc43)cc2[nH]c1=O` (single isomer, unassigned) [Compound 394], for which the IC50 in the assay with HCT116 cells was 7940 nM; with PC-3 cells it was 10000 nM. Besides, the tubulin polymerisation score in the assay on tubulin was 1 (a compound showing 0 to 50% inhibition at 20 μM is reported as score 1). In addition, the minimal effective concentration with PC3 cells is 3.16 µM.

`CCc1cc2ccc([C@@](C)(C#N)[C@H]3CCOc4ccccc43)cc2[nH]c1=O` (single isomer, unassigned) [Compound 395]: the IC50 in the assay on HCT116 cells is 631 nM; in the assay on PC-3 cells, 794 nM. This molecule showed a tubulin polymerisation score in the assay with tubulin of 2. Further, the minimal effective concentration in the assay on PC3 cells was 0.316 µM.

Turning to `CCc1cc2ccc(C(C)(C#N)Cc3cccc(I)c3)cc2[nH]c1=O` (centres unmarked) [Compound 19], the IC50 is 50.1 nM in the assay on HCT116 cells and 158 nM in the assay on PC-3 cells. In addition, the tubulin polymerisation score in the assay with tubulin is 2. The minimal effective concentration with PC3 cells is 0.316 µM.

Consider `CCC(=O)c1cccc(CC(C)(C#N)c2ccc3cc(C)c(=O)[nH]c3c2)c1` (centres unmarked) [Compound 173], for which the values for the IC50 in the assay on HCT116 cells and in the assay on PC-3 cells were 200 nM and 398 nM, respectively. In addition, the tubulin polymerisation score with tubulin is 3 (a compound showing more than 50% inhibition at 5 μM is reported as score 3). Besides, the minimal effective concentration in the assay with PC3 cells is 0.316 µM.

Turning to `COc1cc2ccc(C(C)(C#N)Cc3cccc(C#N)n3)cc2[nH]c1=O` (centres unmarked) [Compound 218], the IC50 in the assay on HCT116 cells and with PC-3 cells was 1260 nM throughout. Also, the tubulin polymerisation score in the assay with tubulin came out at 2. For the same molecule, the minimal effective concentration with PC3 cells is 0.316 µM.

As to `CCc1cc2ccc(C(C)(C#N)Cc3ccc(Cl)nc3OC)cc2[nH]c1=O` (centres unmarked) [Compound 225], the values for the IC50 in the assay with HCT116 cells and in the assay on PC-3 cells were 501 nM and 794 nM, respectively. The molecule further displayed a tubulin polymerisation score in the assay on tubulin of 2. Besides, the minimal effective concentration with PC3 cells was 1 µM.

Consider `CCc1cc2ccc(C(C)(C#N)Cc3cccc(N4CCCC4)n3)cc2[nH]c1=O` (centres unmarked) [Compound 226], for which the figures for the IC50 with HCT116 cells and in the assay on PC-3 cells were 1260 nM and 1580 nM, respectively. In addition, the tubulin polymerisation score in the assay on tubulin came to 2. Moreover, in the assay on PC3 cells, the minimal effective concentration was 3.16 µM.

Turning to `CCc1cc2ccc(C(C)(C#N)Cc3cc(OC)cc(OC)n3)cc2[nH]c1=O` (centres unmarked) [Compound 232], the IC50 in the assay with HCT116 cells was 100 nM; in the assay with PC-3 cells, 251 nM. The molecule further displayed a tubulin polymerisation score in the assay on tubulin of 2. For the same molecule, the minimal effective concentration with PC3 cells is 0.1 µM.

Take `CCc1cc2ccc(C(C)(C#N)Cc3cc(C#N)cc4c3OCC4)cc2[nH]c1=O` (centres unmarked) [Compound 236]: the IC50 in the assay with HCT116 cells is 200 nM; with PC-3 cells, 501 nM. Besides, the tubulin polymerisation score in the assay with tubulin was found to be 2. Further, in the assay with PC3 cells, the minimal effective concentration was 0.316 µM.

With `Cc1cc2ccc(C(C)(C#N)C3CCc4ccc(Br)cc43)cc2[nH]c1=O` (centres unmarked) [Compound 249], the IC50 was 158 nM in the assay with HCT116 cells and 251 nM in the assay with PC-3 cells. In the assay with tubulin, this molecule had a tubulin polymerisation score of 2. In the assay on PC3 cells, the minimal effective concentration is 0.178 µM.

With `CCc1cc2ccc(C(C#N)(CC)Cc3cccc(C#N)c3)cc2[nH]c1=O` (centres unmarked) [Compound 265], the figures for the IC50 in the assay on HCT116 cells and in the assay on PC-3 cells were 501 nM and 1000 nM, respectively. Further, the tubulin polymerisation score in the assay on tubulin is 2. Also, the minimal effective concentration with PC3 cells is 1 µM.

In the case of `CCc1cc2ccc(C(C)(C#N)Cc3cc(F)cc(C#N)c3)cc2[nH]c1=O` (centres unmarked) [Compound 266], the values for the IC50 with HCT116 cells and in the assay with PC-3 cells were 200 nM and 398 nM, respectively. Moreover, in the assay with tubulin, the tubulin polymerisation score is recorded as 3 (a compound showing more than 50% inhibition at 5 μM is reported as score 3). Also, the minimal effective concentration in the assay on PC3 cells was 0.316 µM.

Consider `Cc1cc2ccc(C(C)(C#N)Cc3cc(F)cc(F)c3)cc2[nH]c1=O` (centres unmarked) [Compound 282], for which the IC50 with HCT116 cells is 398 nM; with PC-3 cells it was 1000 nM. For the same molecule, the minimal effective concentration in the assay with PC3 cells was 3.16 µM.

Consider `CCc1cc2ccc(C(C)(C#N)Cc3cc(C)cc(Br)c3)cc2[nH]c1=O` (centres unmarked) [Compound 284], for which the IC50 in the assay with HCT116 cells was 158 nM; in the assay with PC-3 cells, 200 nM. Besides, the minimal effective concentration with PC3 cells is 0.316 µM.

Take `CCc1cc2ccc(C(C#N)(CC)Cc3cccc(OC)c3)cc2[nH]c1=O` (centres unmarked) [Compound 287]: the IC50 in the assay on HCT116 cells and in the assay on PC-3 cells was 1260 nM throughout. Besides, the tubulin polymerisation score in the assay on tubulin is 2. For the same molecule, in the assay with PC3 cells, the minimal effective concentration was 0.316 µM.

Regarding `CCc1cc2ccc(C(C)(C#N)CN(C)CCc3cn(C)c4ccccc34)cc2[nH]c1=O` (centres unmarked) [Compound 303], the IC50 in the assay with HCT116 cells was 1580 nM; with PC-3 cells it was 3160 nM. In addition, the minimal effective concentration in the assay with PC3 cells was 10 µM.

On to `Cc1cc2ccc(C(C)(C#N)Cc3cccc(Oc4ccccn4)c3)cc2[nH]c1=O` (centres unmarked) [Compound 304], for which the IC50 in the assay with HCT116 cells was 251 nM; in the assay on PC-3 cells, 398 nM. For the same molecule, the minimal effective concentration in the assay on PC3 cells is 0.1 µM.

`CCOc1cc(N(C)C)nc(CC(C)(C#N)c2ccc3cc(CC)c(=O)[nH]c3c2)n1` (centres unmarked) [Compound 312]: the values for the IC50 in the assay with HCT116 cells and in the assay on PC-3 cells were 501 nM and 1000 nM, respectively. For the same molecule, in the assay on PC3 cells, the minimal effective concentration is 1 µM.

With `CCOc1cc(C#N)nc(CC(C)(C#N)c2ccc3cc(CC)c(=O)[nH]c3c2)n1` (centres unmarked) [Compound 315], the IC50 in the assay on HCT116 cells was 631 nM; with PC-3 cells, 1260 nM. This molecule came in with a tubulin polymerisation score in the assay with tubulin of 2. Moreover, the minimal effective concentration with PC3 cells is 1 µM.

As for `CCc1cc2ccc(C(C#N)(CC)Cc3nc(C#N)cc(OC)n3)cc2[nH]c1=O` (centres unmarked) [Compound 316], the figures for the IC50 in the assay with HCT116 cells and with PC-3 cells were 631 nM and 1260 nM, respectively. The same molecule yielded a tubulin polymerisation score in the assay with tubulin of 2. For the same molecule, in the assay with PC3 cells, the minimal effective concentration is 3.16 µM.

For the molecule `CCc1cc2ccc(C(C#N)(CC)Cc3nc(OC)cc(OC)n3)cc2[nH]c1=O` (centres unmarked) [Compound 321], the values for the IC50 with HCT116 cells and with PC-3 cells were 316 nM and 398 nM, respectively. For the same molecule, the tubulin polymerisation score in the assay with tubulin stood at 2. Also, in the assay on PC3 cells, the minimal effective concentration is 0.316 µM.

For `CCc1cc2ccc(C(C)(C#N)Cc3ccnc(C#N)c3)cc2[nH]c1=O` (centres unmarked) [Compound 324], the IC50 was 3160 nM in the assay on HCT116 cells and 10000 nM in the assay on PC-3 cells. Besides, in the assay with tubulin, the tubulin polymerisation score was 1 (a compound showing 0 to 50% inhibition at 20 μM is reported as score 1). The minimal effective concentration with PC3 cells is 1 µM.

On to `CCc1cc2ccc(C(C)(C#N)Cc3cc(C)nc(Cl)c3)cc2[nH]c1=O` (centres unmarked) [Compound 326], for which the IC50 in the assay with HCT116 cells is 794 nM; with PC-3 cells it was 1000 nM. For the same molecule, the minimal effective concentration in the assay with PC3 cells is 3.16 µM.

Turning to `CCc1cc2ccc(C(C)(C#N)Cc3cc(C)nc(C#N)c3)cc2[nH]c1=O` (centres unmarked) [Compound 328], the IC50 was 501 nM in the assay on HCT116 cells and 1260 nM in the assay on PC-3 cells. Further, in the assay on tubulin, the tubulin polymerisation score was determined as 2.

As to `CCc1cc2ccc(C(C)(C#N)Cc3cccc(F)n3)cc2[nH]c1=O` (centres unmarked) [Compound 331], the IC50 in the assay on HCT116 cells is 631 nM; in the assay with PC-3 cells, 1580 nM. Further, in the assay on tubulin, the tubulin polymerisation score worked out at 2. In the assay on PC3 cells, the minimal effective concentration is 0.1 µM.

As to `CCc1cc2ccc([C@](C)(C#N)Cc3cc(F)cc(F)c3)cc2[nH]c1=O` [Compound 333], the IC50 in the assay with HCT116 cells and in the assay on PC-3 cells was 10000 nM each time. In the assay on tubulin, the tubulin polymerisation score is reported as 1 (a compound showing 0 to 50% inhibition at 20 μM is reported as score 1). Further, in the assay with PC3 cells, the minimal effective concentration is 10 µM.

Take `CCc1cc2ccc(C(C)(C#N)Cc3ccnc(Cl)c3)cc2[nH]c1=O` (centres unmarked) [Compound 341]: the IC50 in the assay on HCT116 cells is 2510 nM; in the assay on PC-3 cells, 6310 nM. Further, the minimal effective concentration in the assay with PC3 cells is 10 µM.

On to `CCc1cc2ccc(C(C)(C#N)CCOc3ccnc(SC)n3)cc2[nH]c1=O` (centres unmarked) [Compound 348], for which the IC50 with HCT116 cells is 3160 nM; in the assay with PC-3 cells, 7940 nM. For the same molecule, the minimal effective concentration in the assay on PC3 cells is 10 µM.

With `CCc1cc2ccc(C(C)(C#N)CN3CCN(c4ncc(Br)cn4)CC3)cc2[nH]c1=O` (centres unmarked) [Compound 374], the IC50 is 501 nM in the assay with HCT116 cells and 794 nM with PC-3 cells. This molecule also showed a tubulin polymerisation score in the assay on tubulin of 2.
